The values below come from US20120010229A1, “THERAPEUTIC REGIMENS FOR HEDGEHOG-ASSOCIATED CANCERS” (priority 2010, published 2012).

In assay [1] the test system is Hedgehog pathway in stromal cells. Conditions: after single administration; cited from earlier work.
In assay [2] the test system is L3.6pl P-lucky liver metastasis. As to the kind of experiment: L3.6pl liver metastasis model, Study #2. Format: in vivo. The protocol: Model Procedure: Animals were anesthetized and prepared for surgery. The animal's spleen was exposed and 100 μl (1 million cells) of the L3.6pl single cell suspension was injected directly in the spleen towards the splenic vein (intra splenic injection). Once the injection was complete, the splenic artery and splenic vein were ligated, the spleen was excised, and the animals' wounds were closed. Post-op care and analgesia was given for 4 consecutive days and animals were monitored for recovery.
Prior to the procedure listed above 48 animals were separated into […].
Animals in group 2 (Day-of-Treatment), received IPI-926 every-other-day beginning on the day of the intra splenic injection procedure, continuing until the study end.
Animals in group 3 (Pre-Treatment Day −2), received IPI-926 every-other-day starting two days prior to the day of the intra splenic injection procedure, continuing until the study end.
Animals in group 4 (Pre-Treatment Day −7), received IPI-926 every-other-day starting seven days prior to the day of the intra splenic injection procedure, continuing until the study end.
Animals in group 5 (Pre-Treatment Day −14—treatment stopped on Day 0), received IPI-926 every-other-day starting fourteen days prior to the day of the intra splenic injection procedure and ending on the day of implant.
Animals in group 6 (Pre-Treatment Day −14), received IPI-926 every-other-day starting fourteen days prior to the day of the intra splenic injection procedure, continuing until the study end.
Results Procedure: Animals were injected with 10 ml/kg of luciferin concentrated at […] via I.P. injection. This luciferin binds to the L3.6pl P-Lucky cells injected on day 0. Utilizing Calipers Xenogen© machine, this cell-luciferin association emits bioluminescence that can be read and quantified.
Results: FIGS. 12A-12B represent the results from the quantification, normalized on each day to the average of vehicle treated animals. This normalization was done using the formula: (1/(average flux of vehicle animals/average flux of group X (group being compared))).

In assay [3] the test system is L3.6pl xenografts. Conditions: with paclitaxel bonded to albumin (Abraxane).
Assay [4] has as its system Smoothened bearing the A1 point mutation. As to the kind of experiment: Shh pathway inhibition in Smo/Smo (SmoA1) mouse medulloblastoma. Format: in vivo. From the text:
Two mouse medulloblastoma models were considered for these studies. In the Smo/Smo model, the constitutively active Smoothened (SmoA1) transgene is driven by a fragment of the mouse NeuroD2 promoter (Hallahan et al., (2004) Cancer Research 64: 7794-7800). Over 90% of Smo/Smo mice develop subclinical, localized medulloblastomas by one month of age and they typically become symptomatic and moribund 3-5 months later (Hatton et al., (2008) Cancer Research 68: 1768-1776). In this model, Smoothened is activated by a W539L point mutation (SmoA1) in the seventh transmembrane domain (Xie et al. (1998) Nature 391: 90-92; Taipale et al., (2000) Nature 406:1005-1009). While this model is ideal for many pre-clinical medulloblastoma therapeutic trials, it was previously reported that the introduced SmoA1 point mutation reduced the affinity of cyclopamine for Smoothened in tissue culture cells (Taipale et al., (2000) Nature 406:1005-1009). Tests were performed to determine whether doses of IPI-926 that were effective in other mouse model studies were sufficient to block the Shh pathway in Smo/Smo mouse tumors. […] Therefore, a different medulloblastoma model was used.

In assay [5] the test system is H1650 xenograft. Briefly: H1650 mutant EGFR non-small cell lung cancer xenograft, post Gefitinib. Format: in vivo. The procedure: The efficacy of IPI-926 was evaluated when applied as a maintenance therapy following treatment of a xenograft non-small cell lung cancer model with a tyrosine kinase inhibitor. […] Sonic hedgehog ligand is detected by immunohistochemical staining (IHC) of sections of non-small cell lung cancer (FIG. 8A).

Assay [6] concerns Ptc^C/C medulloblastoma flank allografts. As to the kind of experiment: Ptc^C/C medulloblastoma flank allografts (tumor take and response). Type of assay: in vivo, mouse. The procedure:
Animal experiments were performed in accordance with the NIH Guide for the Care and Use of Experimental Animals with approval from the Institutional Animal Care and Use Committee. Freshly excised medulloblastoma tumors from symptomatic Ptc^C/C mice were placed in cooled phosphate buffered saline (PBS), minced with a scalpel, and filtered through a 100 μm cell strainer (BD Bioscience, San Jose, Calif.). The cells were pelleted at 1000 rpm for 5 minutes at 4° C., and resuspended in equal parts DMEM and Matrigel (BD Biosciences, San Diego, Calif.). Recipient mice (wild type littermates) were anesthetized with isoflurane and a suspension of 1×10^6 cells in total volume of 200 μL was injected subcutaneously into the flank using a 30G needle. Tumor growth was measured in two dimensions using digital calipers every 24-48 hours, and the tumor volumes were calculated according to the following formula: 0.5×length×width^2, with width being the smaller of the two dimensions measured. Tumors greater than 2.5 cm in length were harvested and either snap-frozen or fixed in 10% formalin.
To confirm this, aliquots of 1 million cells from the cerebellar tumors of 9 donor Ptc^C/C mice were transplanted to the flanks of 110 recipients.
Recipient mice bearing drug-naïve and IPI-926 treated allograft tumors were then treated with daily IPI-926 (20 mg/kg) and tumor growth was monitored via caliper measurements. […] When tumor volumes reached […], recipient mice then received either daily IPI-926 (20 mg/kg) or vehicle treatment, and the growth of flank allografts was monitored over a nine-week period. […] Half of the allograft mice from drug-treated donors were taken off drug after five weeks of IPI-926 treatment, and the other half received continuous IPI-926 for the nine-week study period. Mice from both groups were monitored for the entire 9-week period.

For the molecule `CC1=C2C[C@H]3[C@@H](CC[C@@H]4C[C@H](NS(C)(=O)=O)CC[C@@]43C)[C@@H]2CC[C@@]2(C1)O[C@@H]1C[C@H](C)CN[C@H]1[C@H]2C` [IPI-926], the “Hedgehog pathway inhibition in stromal cells” value in assay [1] is “rapid and sustained Hedgehog pathway inhibition”. The “take or growth of metastasis within the liver” value in assay [2] (2 days of pre treatment) and in assay [2] (day of implant treatment) was “no effect” throughout. Besides, the “overall survival vs vehicle” value was “survival benefit” in assay [2] (7 days of pre-treatment); “survival benefit” in assay [2] (14 days of pre-treatment then stopping); “limited survival benefits” in assay [2] (pre-treatment beginning at day -2); “no benefit” in assay [2] (treatment starting on the day of implant, day 0). Besides, the “reduction in luminescence below vehicle” value in assay [2] (14 days prior to implant then stopping dosing, early time point) is reported as “roughly 15 fold”. In assay [2] (14 days prior to implant then stopping dosing, latest time point), the “decrease in bioluminescence compared to vehicle” value is 5 fold. Moreover, in assay [2] (treatment from 7 days prior to implant), the “reduction in bioluminescence below vehicle” value is on record as 10-15 fold. In addition, in assay [2] (treatment from 14 days prior to implant), the “increase of overall survival rate, factor” value was at least 2. In addition, in assay [2] (treatment from 14 days prior to implant, continued), the “reduction in flux (bioluminescence) below vehicle” value is listed as 20-25 fold. Moreover, in assay [3], the “effect on therapeutic agent effect of Abraxane” value is on record as “enhances the therapeutic agent effect”. In addition, the proliferation or apoptosis entry in assay [4] (Smo/Smo mouse model) is given as “no detectable effect”. Besides, the “expression of Gli1” value in assay [4] (Smo/Smo mouse tumors) is given as “unaffected”. Moreover, in assay [5] (Gefitinib 40 mg/kg orally one week followed by IPI-926 once a day for three weeks), the “tumor volume after cessation of Gefitinib” value is given as “prolonged duration of the tumor inhibition”. Besides, the “mGLI-1 mRNA expression in lung tumor samples” value in assay [5] (IPI-926 in combination with Gefitinib) is “inhibit mGLI-1 mRNA expression”. The “tumor re-growth on continuous IPI-926” value in assay [6] (allografts from drug-treated donors, continuous IPI-926 for nine weeks) is given as “no tumors re-grew”. Further, the “tumors that re-grew after going off drug” value in assay [6] (allografts from drug-treated donors, off drug after five weeks, monitored 9 weeks) is recorded as 1 of 6. Moreover, the “allograft tumors undetectable by caliper measurements” value in assay [6] (daily IP 20 mg/kg, both allograft groups (drug-naive and IPI-926 treated donors)) is 100%. Moreover, in assay [6] (donors treated daily 20 mg/kg for 6 weeks before transplantation, drug-naive donors 40 of the 110, P=0.017), the “flank tumor take in recipients (tumor initiating capacity)” value is 9 of 51. Also, the “tumors that progressed while on therapy” value in assay [6] (flank allografts from drug-naive donors, 9-week trial) is given as “Forty percent”.
